Source: patent US3962317A, “D-3,6-Diaminohexanoic acid 2-(carboxymethyl)-2-methylhydrazide, process of preparing and intermediates of said process” (priority 1974, dated 1976)
Values after ≈ are worked out from the molar mass of the structure shown.

Legend:
Proteus mirabilis 4671 = assay: Systemic lethal infection in mice, Proteus mirabilis 4671; type: in vivo, Charles River CD1 female mice; details: for Alive/Total Mice Tested 7 Days After Infection: 1 day prior to and immediately after infection
Protocol: (§1) The infections were administered to the mice as follows:
Proteus mirabilis 4671: intraperitoneal injection of a lethal dose consisting of 0.5 ml. of a 10^^-1.6 trypticase soy dilution of a 5 hour trypticase soy broth culture.
(§2) The D-3,6-diaminohexanoic acid 2-(carboxymethyl)-2-methylhydrazide was administered as follows:
Proteus mirabilis 4671: 0.5 ml. dose suspended in 0.2% aqueous agar was administered to groups of Charles River CD1 female mice, weighing 18-22 gm., 1 day prior to infection and then in a second dose immediately after infection at the levels indicated in Table III below.

[1] = tested on: Serratia marcescens Finland; assay: MIC, agar dilution (called standard agar well diffusion assay); type: cell-based; details: nutrient agar, 37°C, 24 hours
Protocol: (§3) In this assay, the minimal inhibitory concentration (MIC) was determined by using twofold dilutions of the compound in nutrient agar. One ml. of each dilution was placed in a sterile Petri dish; 9 ml. of nutrient agar was added to each dish. Five hour cultures of the indicated organism in Trypticase Soy Broth were diluted 10^^-2 in nutrient broth. This dilution of each culture was transferred to the surface of the plates by using a Steers replicating device. […] The MIC of D-3,6-diaminohexanoic acid 2-(carboxymethyl)-2 -methylhydrazide against the indicated organisms are set forth in Table I below.

[2] = tested on: Proteus mirabilis K-1972-12; assay: as above; type: cell-based; details: K197212, nutrient agar, 37°C, 24 hours
Protocol: as §3

[3] = tested on: Enterobacter sp. K-1972-1; assay: as above; type: cell-based; details: SP.K19721, nutrient agar, 37°C, 24 hours
Protocol: as §3

[4] = tested on: Escherichia coli K-1972-1; assay: as above; type: cell-based; details: K19721, nutrient agar, 37°C, 24 hours
Protocol: as §3

Serratia marcescens K132 = assay: as above; type: cell-based; details: nutrient agar, 37°C, 24 hours
Protocol: as §3

Klebsiella pneumoniae AD [5] = assay: as above; type: cell-based; details: nutrient agar, 37°C, 24 hours
Protocol: as §3

[6] = tested on: Salmonella typhimurium K-1972; assay: as above; type: cell-based; details: Salmonella enterica, nutrient agar, 37°C, 24 hours
Protocol: as §3

[7] = tested on: Shigella flexneri (2a) RB; assay: as above; type: cell-based; details: nutrient agar, 37°C, 24 hours
Protocol: as §3

[8] = tested on: Herellea vaginicola Hughes; assay: as above; type: cell-based; details: nutrient agar, 37°C, 24 hours
Protocol: as §3

[9] = tested on: Staphylococcus aureus Morton No. 1169; assay: as above; type: cell-based; details: nutrient agar, 37°C, 24 hours
Protocol: as §3

[10] = tested on: Enterococcus (S. faecalis) Isenberg; assay: as above; type: cell-based; details: nutrient agar, 37°C, 24 hours
Protocol: as §3

Escherichia coli No. 311 = assay: as above; type: cell-based; details: nutrient agar, 37°C, 24 hours
Protocol: as §3

[11] = tested on: Escherichia coli K-1972-2; assay: as above; type: cell-based; details: K19722, nutrient agar, 37°C, 24 hours
Protocol: as §3

[12] = tested on: Herellea vaginicola Washington 885-863; assay: as above; type: cell-based; details: nutrient agar, 37°C, 24 hours
Protocol: as §3

[13] = tested on: Shigella flexneri (5) Citarella; assay: as above; type: cell-based; details: nutrient agar, 37°C, 24 hours
Protocol: as §3

[14] = tested on: Proteus mirabilis No. 4361; assay: as above; type: cell-based; details: nutrient agar, 37°C, 24 hours
Protocol: as §3

[15] = tested on: Salmonella enteritidis K-1972; assay: as above; type: cell-based; details: Salmonella enterica, nutrient agar, 37°C, 24 hours
Protocol: as §3

[16] = tested on: Staphylococcus aureus Jackson No. 4; assay: as above; type: cell-based; details: nutrient agar, 37°C, 24 hours
Protocol: as §3

[17] = tested on: Pseudomonas aeruginosa PA7; assay: as above; type: cell-based; details: nutrient agar, 37°C, 24 hours
Protocol: as §3

[18] = tested on: Klebsiella pneumoniae K-1972-2; assay: as above; type: cell-based; details: K19722, nutrient agar, 37°C, 24 hours
Protocol: as §3

Proteus vulgaris K-1972 = assay: as above; type: cell-based; details: K1972, nutrient agar, 37°C, 24 hours
Protocol: as §3

[19] = tested on: Proteus mirabilis K-1972-16; assay: as above; type: cell-based; details: K197216, nutrient agar, 37°C, 24 hours
Protocol: as §3

[20] = tested on: Pseudomonas aeruginosa 12-4-4; assay: as above; type: cell-based; details: 1244, nutrient agar, 37°C, 24 hours
Protocol: as §3

[21] = tested on: standard laboratory microorganisms; assay: Standard agar well diffusion assay against a variety of standard laboratory microorganisms; type: cell-based
[22] = tested on: Enterobacter aerogenes 75; assay: Zone of inhibition, standard agar well diffusion assay; type: cell-based
Protocol: as §3
(§4) In another representative operation, the standard agar well diffusion assay was repeated with D-3,6-diaminohexanoic acid 2-(carboxymethyl)-2-methylhydrazide except that after incubation the zone of inhibition against the indicated organism is millimeters was determined.

[23] = tested on: Trichophyton mentagrophytes E11; assay: as above; type: cell-based
Protocol: as §3, §4

Klebsiella pneumoniae AD [24] = assay: as above; type: cell-based
Protocol: as §3, §4

[25] = tested on: Proteus vulgaris ATCC 9484; assay: as above; type: cell-based
Protocol: as §3, §4

[26] = tested on: Pseudomonas aeruginosa ATCC 10145; assay: as above; type: cell-based
Protocol: as §3, §4

[27] = tested on: Microsporum canis ATCC 10214; assay: as above; type: cell-based
Protocol: as §3, §4

Candida albicans E 83 = assay: as above; type: cell-based
Protocol: as §3, §4

[28] = tested on: Trichophyton tonsurans NIH 662; assay: as above; type: cell-based
Protocol: as §3, §4

[29] = tested on: Mycobacterium smegmatis ATCC 606; assay: as above; type: cell-based
Protocol: as §3, §4

[30] = tested on: Staphylococcus aureus Rose ATCC 14154; assay: as above; type: cell-based
Protocol: as §3, §4

Escherichia coli 311 [31] = assay: as above; type: cell-based
Protocol: as §3, §4

[32] = tested on: Salmonella typhosa ATCC 6539; assay: as above; type: cell-based
Protocol: as §3, §4

[33] = tested on: Cryptococcus neoformans E 183; assay: as above; type: cell-based
Protocol: as §3, §4

Escherichia coli 311 [34] = assay: Systemic lethal infection in mice, Escherichia coli 311; type: in vivo, Charles River CD1 female mice; details: for Alive/Total Mice Tested 7 Days After Infection: immediately after infection
Protocol: as §1
Escherichia coli 311: intraperitoneal infection of a lethal dose consisting of 0.5 ml. of a 10^^-3 trypticase soy dilution of a 5 hour trypticase soy broth culture.
as §2
Escherichia coli 311: 0.5 ml. dose suspended in 0.2% aqueous agar was administered to groups of Charles River CD1 female mice, weighing 18-22 gm., immediately after infection at the levels indicated in Table III below.

CN(CC(=O)O)NC(=O)C[C@H](N)CCCN [D-3,6-diaminohexanoic acid 2-(carboxymethyl)-2-methylhydrazide]
Alive/Total Mice Tested 7 Days After Infection (Proteus mirabilis 4671; 64 mg./kg. subcutaneous): 5/5
Alive/Total Mice Tested 7 Days After Infection (Proteus mirabilis 4671; 128 mg./kg. subcutaneous): 5/5
Alive/Total Mice Tested 7 Days After Infection (Proteus mirabilis 4671; 256 mg./kg. subcutaneous): 5/5
in vivo activity against systemic lethal infection (Proteus mirabilis 4671; Proteus mirabilis infection in mice): controlled systemic lethal infections
MIC [1]: 64 µg/mL (≈ 276 µM)
MIC [2]: 64 µg/mL (≈ 276 µM)
MIC [3]: 32 µg/mL (≈ 138 µM)
MIC [4]: 16 µg/mL (≈ 68.9 µM)
MIC (Serratia marcescens K132): 32 µg/mL (≈ 138 µM)
MIC (Klebsiella pneumoniae AD [5]): 4 µg/mL (≈ 17.2 µM)
MIC [6]: 32 µg/mL (≈ 138 µM)
MIC [7]: 4 µg/mL (≈ 17.2 µM)
MIC [8]: 32 µg/mL (≈ 138 µM)
MIC [9]: 32 µg/mL (≈ 138 µM)
MIC [10]: > 128 µg/mL
MIC (Escherichia coli No. 311): 16 µg/mL (≈ 68.9 µM)
MIC [11]: 16 µg/mL (≈ 68.9 µM)
MIC [12]: 32 µg/mL (≈ 138 µM)
MIC [13]: 64 µg/mL (≈ 276 µM)
MIC [14]: 64 µg/mL (≈ 276 µM)
MIC [15]: 32 µg/mL (≈ 138 µM)
MIC [16]: 64 µg/mL (≈ 276 µM)
MIC [17]: 64 µg/mL (≈ 276 µM)
MIC [18]: 32 µg/mL (≈ 138 µM)
MIC (Proteus vulgaris K-1972): 64 µg/mL (≈ 276 µM)
MIC [19]: 64 µg/mL (≈ 276 µM)
MIC [20]: 64 µg/mL (≈ 276 µM)
antibacterial and antifungal activity in vitro [21]: broad-spectrum antibacterial and antifungal activity in vitro
Zone of Inhibition [22]: 50 mm.
Zone of Inhibition [23]: 100 mm.
Zone of Inhibition (Klebsiella pneumoniae AD [24]): 10 mm.
Zone of Inhibition [25]: 25 mm.
Zone of Inhibition [26]: 50 mm.
Zone of Inhibition [27]: 250 mm.
Zone of Inhibition (Candida albicans E 83): 50 mm.
Zone of Inhibition [28]: 25 mm.
Zone of Inhibition [29]: 100 mm.
Zone of Inhibition [30]: 100 mm.
Zone of Inhibition (Escherichia coli 311 [31]): 25 mm.
Zone of Inhibition [32]: 25 mm.
Zone of Inhibition [33]: 10 mm.
Alive/Total Mice Tested 7 Days After Infection (Escherichia coli 311 [34]; 4 mg./kg. subcutaneous): 0/5
Alive/Total Mice Tested 7 Days After Infection (Escherichia coli 311 [34]; 8 mg./kg. subcutaneous): 0/5
Alive/Total Mice Tested 7 Days After Infection (Escherichia coli 311 [34]; 16 mg./kg. subcutaneous): 0/5
Alive/Total Mice Tested 7 Days After Infection (Escherichia coli 311 [34]; 32 mg./kg. subcutaneous): 3/5
Alive/Total Mice Tested 7 Days After Infection (Escherichia coli 311 [34]; 64 mg./kg. subcutaneous): 5/5
in vivo activity against systemic lethal infection (Escherichia coli 311 [34]; Escherichia coli infection in mice): controlled systemic lethal infections
